The experiment has as its system metabotropic glutamate receptors. Briefly: Displacement of 1S,3R-ACPD-sensitive [3H]glutamate binding to rat brain cell membranes. As to conditions: crude membranes of rat forebrain; for IC50: inhibition of [3H]glutamate binding; for ACPD-Sensitive [^3H]Glutamate Binding % Displacement at 10 µM: 10 µM compound. As for the experimental part:
The binding of [^3H]glutamate was conducted with crude membranes of rat forebrain as described by Schoepp and True. Schoepp and True, Neuroscience Lett., 145, 100-104 (1992) and True and Schoepp, Society for Neuroscience Abstracts, 19, 470 (1993). IC50 values for the inhibition of [^3H]glutamate binding, or the percent displacement of [^3H]glutamate binding at a 10 µM concentration, of the formula I compound, is shown in Table II.

The results in this text go back to patent EP0771196B1, “EXCITATORY AMINO ACID RECEPTOR ANTAGONISTS” (ELI LILLY AND COMPANY, priority 1994, dated 1996).

Molecule `NC(CCc1ccc(F)cc1)(C(=O)O)[C@H]1C[C@@H]1C(=O)O` (mixture of isomers) [Example 54, 2SR- and 2RS-2-amino-2-(1SR,2SR-2-carboxycyclopropan-1-yl)-4-(4-fluorophenyl)butanoic acid] showed an IC50 of 23 nM.

On to `Cc1cccc(CCC(N)(C(=O)O)[C@H]2C[C@@H]2C(=O)O)c1` (mixture of isomers) [Example 21, 2SR- and 2RS-2-amino-2-(1SR,2SR-2-carboxycyclopropan-1-yl)-4-(3-methylphenyl)butanoic acid], for which the IC50 worked out at 38 nM.

Regarding `COc1cccc(CCC(N)(C(=O)O)[C@H]2C[C@@H]2C(=O)O)c1OC` (mixture of isomers) [Example 52, 2SR- and 2RS-2-amino-2-(1SR,2SR-2-carboxycyclopropan-1-yl)-4-(2,3-dimethoxyphenyl)butanoic acid], the IC50 turned out to be 4900 nM.

For the molecule `NC(CC1CCCC1)(C(=O)O)C1CC1C(=O)O` (stereo not drawn) [Example 41, 2SR- and 2RS-2-amino-2-(1SR,2SR-2-carboxycyclopropan-1-yl)-3-cyclopentylpropanoic acid], the IC50 is 1400 nM.

`NC(CCC1CCCCC1)(C(=O)O)C1CC1C(=O)O` (stereo not drawn) [Example 44, 2SR- and 2RS-2-amino-2-(1SR,2SR-2-carboxycyclopropan-1-yl)-4-(cyclohexyl)butanoic acid] returned an IC50 of 380 nM.

In the case of `COc1cccc(CCC(N)(C(=O)O)C2CC2C(=O)O)c1` (stereo not drawn) [Example 27, 2SR- and 2RS-2-amino-2-(1SR,2SR-2-carboxycyclopropan-1-yl) -4-(3-methoxyphenyl)butanoic acid], the IC50 was found to be 42 nM.

In turn, `N[C@@](CC(c1ccccc1)c1ccccc1)(C(=O)O)[C@H]1C[C@@H]1C(=O)O` [Example 63, 2R 2-amino-2-(1S,2S-2-carboxycyclopropan-1-yl)-4,4-diphenylbutanoic acid] came in with an IC50 of 2000 nM.

The molecule `NC(CCc1cccc(Br)c1)(C(=O)O)C1CC1C(=O)O` (stereo not drawn) [Example 38, 2SR- and 2RS-2-amino-2-(1SR,2SR-2-carboxycyclopropan-1-yl)-4-(3-bromophenyl)butanoic acid] showed an IC50 of 55 nM.

In turn, `CCCC(N)(C(=O)O)C1CC1C(=O)O` (stereo not drawn) [Example 10, 2SR- and 2RS-2-amino-2-(1SR,2SR-2-carboxycyclopropan-1-yl)pentanoic acid] came in with an IC50 of 2100 nM.

Regarding `Cc1cccc(CCC(N)(C(=O)O)C2CC2C(=O)O)c1` [Example 68, 2S-2-amino-2-(1S,2S-2-carboxycyclopropan-1-yl)-4-(3-methylphenyl)butanoic acid], the IC50 turned out to be 12 ± 3 nM.

Molecule `NC(CC1CCCCC1)(C(=O)O)[C@H]1C[C@@H]1C(=O)O` (mixture of isomers) [Example 62, 2SR- and 2RS-2-amino-2-(1SR,2SR-2-carboxycyclopropan-1-yl)-3-cyclohexylpropanoic acid] registered an IC50 of 230 nM.

The molecule `NC(CCc1cccc(Cl)c1)(C(=O)O)[C@H]1C[C@@H]1C(=O)O` (mixture of isomers) [Example 24, 2SR- and 2RS-2-amino-2-(1SR,2SR-2-carboxycyclopropan-1-yl)-4-(3-chlorophenyl)butanoic acid] yielded an IC50 of 110 nM.

Molecule `COc1ccc(CCC(N)(C(=O)O)C2CC2C(=O)O)cc1OC` (stereo not drawn) [Example 33, 2SR- and 2RS-2-amino-2-(1SR,2SR-2-carboxycyclopropan-1-yl)-4-(3,4-dimethoxyphenyl)butanoic acid] displayed an IC50 of 460 nM.

In turn, `NC(CCc1ccc(Cl)c(Cl)c1)(C(=O)O)C1CC1C(=O)O` (stereo not drawn) [Example 48, 2SR- and 2RS-2-amino-2-(1SR,2SR-2-carboxycyclopropan-1-yl)-4-(3,4-dichlorophenyl)butanoic acid] yielded an IC50 of 38 nM.

Regarding `Cc1ccccc1CCC(N)(C(=O)O)[C@H]1C[C@@H]1C(=O)O` (mixture of isomers) [Example 20, 2SR- and 2RS-2-amino-2-(1SR,2SR-2-carboxycyclopropan-1-yl)-4-(2-methylphenyl)butanoic acid], the IC50 worked out at 570 nM.

Consider `COc1cc(CCC(N)(C(=O)O)[C@H]2C[C@@H]2C(=O)O)cc(OC)c1` (mixture of isomers) [Example 53, 2SR- and 2RS-2-amino-2-(1SR,2SR-2-carboxycyclopropan-1-yl)-4-(3,5-dimethoxyphenyl)butanoic acid], for which the IC50 amounted to 95 nM.

In turn, `NC(CCc1ccc(Cl)cc1)(C(=O)O)C1CC1C(=O)O` (stereo not drawn) [Example 25, 2SR- and 2RS-2-amino-2-(1SR, 2SR-2-carboxycyclopropan-1-yl)-4-(4-chlorophenyl)butanoic acid] displayed an IC50 of 410 nM.

With `NC(CCc1cccc(O)c1)(C(=O)O)C1CC1C(=O)O` (stereo not drawn) [Example 30, 2SR- and 2RS-2-amino-2-(1SR,2SR-2-carboxycyclopropan-1-yl)-4-(3-hydroxyphenyl)butanoic acid], the IC50 amounted to 80 nM.

Consider `NC(CCc1ccccc1)(C(=O)O)C1CC1C(=O)O` (stereo not drawn) [Example 2, 2SR- and 2RS-2-amino-2-(1SR,2SR-2-carboxycyclopropan-1-yl)-4-phenylbutanoic acid], for which the half-maximal inhibitory concentration (IC50) was 320 nM.

In turn, `NC(CCc1ccc(C(F)(F)F)cc1)(C(=O)O)[C@H]1C[C@@H]1C(=O)O` (mixture of isomers) [Example 56, 2SR- and 2RS-2-amino-2-(1SR,2SR-2-carboxycyclopropan-1-yl)-4-(4-(trifluoromethyl)phenyl)butanoic acid] displayed an IC50 of 610 nM.

In the case of `CCCCCC(N)(C(=O)O)C1CC1C(=O)O` (stereo not drawn) [Example 12, 2SR- and 2RS-2-amino-2-(1SR,2SR-2-carboxycyclopropan-1-yl)heptanoic acid], the IC50 worked out at 1800 nM.

For the molecule `CC(CC(N)(C(=O)O)C1CC1C(=O)O)c1ccccc1` (stereo not drawn) [Example 34, 2SR,5SR-, 2SR,5RS-, 2RS,5SR- and 2RS,5RS-2-amino-2-(1SR,2SR-2-carboxycyclopropan-1-yl)-4-methyl-4-phenylbutanoic acid], the IC50 was 120 nM.

On to `NC(CCc1cccc(C(=O)O)c1)(C(=O)O)[C@H]1C[C@@H]1C(=O)O` (mixture of isomers) [Example 79, 2SR- and 2RS-2-amino-2-(1SR,2SR-2-carboxycyclopropan-1-yl)-4-(3-carboxyphenyl)butanoic acid], for which the half-inhibitory concentration (IC50) was 49 nM.

Regarding `NC(CCc1ccccc1O)(C(=O)O)C1CC1C(=O)O` (stereo not drawn) [Example 29, 2SR- and 2RS-2-amino-2-(1SR,2SR-2-carboxycyclopropan-1-yl)-4-(2-hydroxyphenyl)butanoic acid], the IC50 was 100 nM.

Regarding `N[C@@](CC(c1ccccc1)c1ccccc1)(C(=O)O)[C@@H]1C[C@H]1C(=O)O` [Example 65, 2R 2-amino-2-(1R,2R-2-carboxycyclopropan-1-yl)-4,4-diphenylbutanoic acid], the “ACPD-Sensitive [^3H]Glutamate Binding % Displacement at 10 µM” value was “(45%)”.

On to `NC(C(=O)O)(C1Cc2ccccc2C1)C1CC1C(=O)O` (stereo not drawn) [Example 43, 2SR- and 2RS-2-amino-2-(1SR,2SR-2-carboxycyclopropan-1-yl)-2-(indan-2-yl)ethanoic acid], for which the “ACPD-Sensitive [^3H]Glutamate Binding % Displacement at 10 µM” value is listed as “(32%)”.

For the molecule `NC(CCc1ccccc1F)(C(=O)O)[C@H]1C[C@@H]1C(=O)O` (mixture of isomers) [Example 55, 2SR- and 2RS-2-amino-2-(1SR,2SR-2-carboxycyclopropan-1-yl)-4-(2-fluorophenyl)butanoic acid], the IC50 stood at 120 nM.

Turning to `N[C@](CC(c1ccccc1)c1ccccc1)(C(=O)O)[C@@H]1C[C@H]1C(=O)O` [Example 66, 2S-2-amino-2-(1R,2R-2-carboxycyclopropan-1-yl)-4,4-diphenylbutanoic acid], the “ACPD-Sensitive [^3H]Glutamate Binding % Displacement at 10 µM” value is reported as “(36%)”.

`COc1ccc(OC)c(CCC(N)(C(=O)O)C2CC2C(=O)O)c1` (stereo not drawn) [Example 32, 2SR- and 2RS-2-amino-2-(1SR,2SR-2-carboxycyclopropan-1-yl)-4-(2,5-dimethoxyphenyl)butanoic acid] came in with an IC50 of 170 nM.

As for `COc1ccccc1CCC(N)(C(=O)O)C1CC1C(=O)O` (stereo not drawn) [Example 26, 2SR- and 2RS-2-amino-2-(1SR,2SR-2-carboxycyclopropan-1-yl) -4-(2-methoxyphenyl)butanoic acid], the IC50 came to 170 nM.

On to `NC(Cc1ccc(C(=O)O)cc1)(C(=O)O)C1CC1C(=O)O` (stereo not drawn) [Example 42, 2SR- and 2RS-2-amino-2-(1SR,2SR-2-carboxycyclopropan-1-yl)-3-((4-carboxy)phenyl)propanoic acid], for which the “ACPD-Sensitive [^3H]Glutamate Binding % Displacement at 10 µM” value was “(39%)”.

As to `NC(CCc1ccc(Cl)cc1Cl)(C(=O)O)C1CC1C(=O)O` (stereo not drawn) [Example 47, 2SR- and 2RS-2-amino-2-(1SR,2SR-2-carboxycyclopropan-1-yl)-4-(2,4-dichlorophenyl)butanoic acid], the IC50 was 220 nM.

With `CCCCC(N)(C(=O)O)C1CC1C(=O)O` (stereo not drawn) [Example 11, 2SR- and 2RS-2-amino-2-(1SR,2SR-2-carboxycyclopropan-1-yl)hexanoic acid], the IC50 is 1400 nM.

Take `NC(CC1CCC1)(C(=O)O)C1CC1C(=O)O` (stereo not drawn) [Example 40, 2SR- and 2RS-2-amino-2-(1SR,2SR-2-carboxycyclopropan-1-yl)-3-cyclobutylpropanoic acid]: the IC50 turned out to be 29500 nM.

On to `N[C@](CC(c1ccccc1)c1ccccc1)(C(=O)O)[C@H]1C[C@@H]1C(=O)O` [Example 64, 2S-2-amino-2-(1S,2S-2-carboxycyclopropan-1-yl)-4,4-diphenylbutanoic acid], for which the IC50 stood at 35 ± 5 nM.

`NC(Cc1ccccc1)(C(=O)O)C1CC1C(=O)O` (stereo not drawn) [Example 1, 2SR- and 2RS-2-amino-2-(1SR,2SR-2-carboxycyclopropan-1-yl)-3-phenylpropanoic acid]: the “ACPD-Sensitive [^3H]Glutamate Binding % Displacement at 10 µM” value was “(61%)”.

In turn, `NC(CCc1ccsc1)(C(=O)O)[C@H]1C[C@@H]1C(=O)O` (mixture of isomers) [Example 59, 2SR- and 2RS-2-amino-2-(1SR,2SR-2-carboxycyclopropan-1-yl)-4-(3-thienyl)butanoic acid] gave an IC50 of 210 nM.

As a reminder, the IC50 is the midpoint of a concentration-inhibition curve. The low end stands for greater potency, the high end for weaker potency.
